Source: patent US20220096410A1, “PHARMACEUTICAL COMPOSITION FOR INTRAOCULAR OR ORAL ADMINISTRATION FOR TREATMENT OF RETINAL DISEASES” (FUSO PHARMACEUTICAL INDUSTRIES, LTD., priority 2019, published 2022)

What was measured:
Format in all cases: in vivo, BALB/c mice
[1] = tested on: light irradiation model (atrophic AMD model mouse); test: Pharmacological test against AMD, light-induced AMD model mice, oral administration, ONL thickness
Procedure: A test was performed using a light irradiation model, which is widely employed as an atrophic AMD model mouse, as a test model. Male BALB/c mice (4 weeks old) were purchased from Japan SLC, Inc., and allowed to acclimate for a week before being used for experiments. Laboratory animal chow (CLEA Rodent Diet CE-2, CREA JAPAN, INC.) was used as food, and tap water was freely consumed as drinking water. The animals were raised under light and dark cycles of every 12 hours. Also all animal experiments were conducted under the approval of the Kyushu University Animal Experiment Committee. To BALB/c mice, 1 mL/kg of 50 μM compound dissolved in PBS containing 10% polyethylene glycol (PEG) 300 was orally administered. Thirty (30) minutes later, one drop of […] (5 mg/mL tropicamide, 5 mg/mL phenylephrine hydrochloride; Santen Pharmaceutical Co., Ltd.) was applied to each eye as a mydriatic drug. The mice were irradiated with 8000 lux white light for 10 hours, then returned to under normal light and dark cycles, and raised for 6 days. On day 7, the animal was euthanized by cervical dislocation, and the eyeballs were removed (FIG. 1A). Frozen sections of 8 μm thickness were prepared by using the above-mentioned removed eyeballs, and subjected to hematoxylin eosin (HE) staining, and the thickness of the outer nuclear layer (ONL) was measured over 27 points every 180 μm (observation magnification: 60 times) (FIG. 1B). The preparation was air-dried for 1 hour, fixed with acetone at room temperature for 15 minutes, then immersed in 99.5% EtOH, 80% EtOH, 70% EtOH, and purified water in this order for 3 minutes each, and stained with hematoxylin for 10 minutes. Then, it was washed with running water for 10 minutes, soaked in warm water for 1 minute, and stained with eosin for 1.5 minutes. After washing with purified water, it was immersed in 70% EtOH, 80% EtOH, and 99.5% EtOH in this order for 3 minutes each, then washed with xylene three times, dried, and then enclosed with VectaMountTM Mounting Medium. The resultant was subjected to observation and imaging with Keyence fluorescence microscope (BZ-9000). Results were expressed as mean+standard deviation. Dunnett's Test was used for multigroup comparison.

[2] = tested on: light irradiation model (atrophic AMD model mouse); test: Pharmacological test against AMD, light-induced AMD model mice, administration by eye drop, ONL thickness; details: 50 μL per one eye
Procedure: A test was performed using a light irradiation model, which is widely employed as an atrophic AMD model mouse, as a test model.
(§1) Male BALB/c mice (4 weeks old) were purchased from Japan SLC, Inc., and allowed to acclimate for a week before being used for experiments. Laboratory animal chow (CLEA Rodent Diet CE-2, CREA JAPAN, INC.) was used as food, and tap water was freely consumed as drinking water. The animals were raised under light and dark cycles of every 12 hours. Also all animal experiments were conducted under the approval of the Kyushu University Animal Experiment Committee.
To BALB/c mice, Midrin P (5 mg/mL tropicamide, 5 mg/mL phenylephrine hydrochloride; Santen Pharmaceutical Co., Ltd.) as a mydriatic drug was applied to both eyes by one drop per one eye, and after 10 minutes, 0.45%, 0.75% or 1% of methyldopa that was dissolved in PBS containing 10% polyethylene glycol (PEG) 300 was administered with eye drop in 50 μL of the compound per one eye. Thereafter, the mice were irradiated with 8000 lux white light for 10 hours, then returned to under normal light and dark cycles, and raised for 6 days. On day 7, the animal was euthanized by cervical dislocation, and the eyeballs were removed.
Frozen sections of 8 μm thickness were prepared by using the above-mentioned removed eyeballs, and subjected to hematoxylin eosin (HE) staining, and the thickness of the outer nuclear layer (ONL) was measured over 27 points every 180 μm (observation magnification: 40 times).
The preparation was air-dried for 1 hour, fixed with acetone at room temperature for 15 minutes, then immersed in 99.5% EtOH, 80% EtOH, 70% EtOH, and purified water in this order for 3 minutes each, and stained with hematoxylin for 10 minutes. Then, it was washed with running water for 10 minutes, soaked in warm water for 1 minute, and stained with eosin for 1.5 minutes. […] The resultant was subjected to observation and imaging with Keyence fluorescence microscope (BZ-9000).
Results were expressed as mean+standard deviation. […]

[3] = tested on: mRNA of Muller cell marker protein; test: Activity evaluation test of Muller cell (real-time PCR of retina, AMD model mice); details: oral, 1 mL/kg of 50 μM, pathological group of mice
Source text: For age-related macular degeneration (AMD), the suppression activity of the test compounds against the expression amount of mRNA of a marker protein, which is used as an indicator of activity of Muller cell and is increased as a pathology is deteriorated, was examined. The present compound as test compound was methyldopa (Compound Y).
as §1
A method for producing age-related macular degeneration (AMD) model mice (production schedule) was prepared according to the method described in Test Example 2 (FIG. 3). […]
For the removed retina, RNA was extracted by using ISOSPIN Cell & Tissue RNA (manufactured by Nippon Gene Co. Ltd), and cDNA was then synthesized by using ReverTra Ace™ qPCR RT master Mix (manufactured by Toyobo Co. Ltd). […] All of the test results were corrected by Gapdh mRNA amounts, and a relative quantification was carried.

[4] = tested on: mRNA of microglia marker protein; test: Activity evaluation test of microglia (real-time PCR of retina, AMD model mice); details: oral, 1 mL/kg of 50 μM, pathological group of mice
mRNA of the complement = test: Activity evaluation test of complement (real-time PCR of retina, AMD model mice); details: oral, 1 mL/kg of 50 μM, pathological group of mice
Procedure: Specifically, to 9 week olds of BALB/c mice, 1 mL/kg of 50 μM test compounds dissolved in PBS containing 10% polyethylene glycol (PEG) 300 was orally administered. A PBS solution containing 10% polyethylene glycol (PEG) 300 was used as a control. Thirty (30) minutes later, one drop of Midrin P (5 mg/mL tropicamide, 5 mg/mL phenylephrine hydrochloride; Santen Pharmaceutical Co., Ltd.) as a mydriatic drug was applied to both eyes by one drop per one eye. The mice were irradiated with 8000 lux white light for 10 hours, then returned to under normal light and dark cycles, and raised for the desirable observation periods. After the observation periods, the animal was euthanized by cervical dislocation, and the retina were removed.
For the removed retina, RNA was extracted by using ISOSPIN Cell & Tissue RNA (manufactured by Nippon Gene Co. Ltd), and cDNA was then synthesized by using ReverTra Ace™ qPCR RT master Mix (manufactured by Toyobo Co. Ltd). The obtained cDNA was diluted with sterile water to 0.5 ng/μL, and a real-time PCR was carried out with THUNDERBIRD™ SYBR™ qPCR Mix (manufactured by Toyobo Co. Ltd). All of the test results were corrected by Gapdh mRNA amounts, and a relative quantification was carried. […]

[5] = 50 μmol/kg, 8000 lux white light 10 hours, day 7

In the case of `CC1Cc2ccccc2N1NC(=O)c1ccc(Cl)c(S(N)(=O)=O)c1` (racemic) [indapamide, 4-Chloro-N-[(2RS)-2-methyl-2,3-dihydro-1H-indol-1-yl]-3-sulfamoyl Benzamide], the “ONL thickness compared to positive control” value [1, 5] is reported as “not different so much compared to that of the positive control”.
`CCOc1ccc2c(c1)C(C)=CC(C)(C)N2` [ethoxyquin, 6-Ethoxy-2,2,4-trimethyl-1,2-dihydroquinoline] was tested, and the “ONL thickness compared to positive control” value [1, 5] was “not different so much compared to that of the positive control”.
For `C[C@](N)(Cc1ccc(O)c(O)c1)C(=O)O` [methyldopa, Methyldopa Sesquihydrates], the “ONL thickness compared to light irradiation case” value ([2]; eye drop 0.45%) was “significant thickness compared to that of the light irradiation case”, the “ONL thickness compared to light irradiation case” value ([2]; eye drop 0.75%) was “significant thickness compared to that of the light irradiation case” and the “ONL thickness compared to light irradiation case” value ([2]; eye drop 1%) was “significant thickness compared to that of the light irradiation case”. For the same compound, the “expression amounts of mRNA in Muller cell marker protein” value [3] was “suppress significantly”, the “expression amounts of mRNA in microglia marker protein” value [4] was “suppress significantly” and the “expression amounts of mRNA in the complement” value (mRNA of the complement) was “suppress significantly”. The “ONL thickness compared to positive control” value ([1]; 100 μmol/kg) was “didn't have significant difference compared to that of the positive control” and the “ONL thickness compared to positive control” value ([1]; 200 μmol/kg) was “didn't have significant difference compared to that of the positive control”.
